Experimental data published in PubChem BioAssay (NCI).
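How tested: cells in 96-well plates exposed to compound for 48 hours at five concentrations. TGI is the concentration that stops growth completely.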

How the values were obtained:
Assay in all cases: DTP human tumour cell line panel, 48 h
A498 renal = test system: A498 renal
ACHN renal = test system: ACHN renal
EKVX NSCLC = test system: EKVX NSCLC
HL-60(TB) leukemia = test system: HL-60(TB) leukemia
HOP-62 NSCLC = test system: HOP-62 NSCLC
IGROV1 ovarian = test system: IGROV1 ovarian
LOX IMVI melanoma = test system: LOX IMVI melanoma
MCF7 breast = test system: MCF7 breast
MOLT-4 leukemia = test system: MOLT-4 leukemia
OVCAR-3 ovarian = test system: OVCAR-3 ovarian
OVCAR-4 ovarian = test system: OVCAR-4 ovarian
SF-268 CNS = test system: SF-268 CNS
SF-295 CNS = test system: SF-295 CNS
SK-MEL-28 melanoma = test system: SK-MEL-28 melanoma
SN12C renal = test system: SN12C renal
SNB-19 CNS = test system: SNB-19 CNS
SW-620 colon = test system: SW-620 colon
U251 CNS = test system: U251 CNS

| Compound | TGI (A498 renal) [µM] | TGI (ACHN renal) [µM] | TGI (EKVX NSCLC) [µM] | TGI (HL-60(TB) leukemia) [µM] | TGI (HOP-62 NSCLC) [µM] | TGI (IGROV1 ovarian) [µM] | TGI (LOX IMVI melanoma) [µM] | TGI (MCF7 breast) [µM] | TGI (MOLT-4 leukemia) [µM] | TGI (OVCAR-3 ovarian) [µM] | TGI (OVCAR-4 ovarian) [µM] | TGI (SF-268 CNS) [µM] | TGI (SF-295 CNS) [µM] | TGI (SK-MEL-28 melanoma) [µM] | TGI (SN12C renal) [µM] | TGI (SNB-19 CNS) [µM] | TGI (SW-620 colon) [µM] | TGI (U251 CNS) [µM] |
| --- | --- | --- | --- | --- | --- | --- | --- | --- | --- | --- | --- | --- | --- | --- | --- | --- | --- | --- |
| CNNC1=NS(=O)(=O)c2cc(C(=O)OC)c(Cl)cc2S1 | > 10 | > 10 | > 10 | > 10 | > 10 | > 10 | > 10 | > 10 | > 10 | > 10 | > 10 | > 10 | > 10 | > 10 | > 10 | > 10 | > 10 | > 10 |
| COc1ccc(-c2c(N)n(-c3cc(OC)cc(OC)c3)c(=O)c3cc([N+](=O)[O-])ccc23)cc1 | 98.5 | > 100 | > 100 | > 100 | > 100 | > 100 | > 100 | > 100 | > 100 | > 100 | > 100 | > 100 | > 100 | > 100 | > 100 | 99.5 | > 100 | > 100 |
| COC(=O)c1c(C)cccc1C1CN=NC12Cc1c(C)cccc1C2=O (stereo not given) | > 100 | > 100 | 79.7 | > 100 | > 100 | > 100 | > 100 | > 100 | > 100 | > 100 | > 100 | > 100 | > 100 | > 100 | > 100 | > 100 | > 100 | > 100 |
| CN(C)c1ncc(-c2c[nH]c3ccccc23)nc1-c1c[nH]c2ccccc12 | 4.56 | 6.88 | 10.8 | > 100 | 22 | 13.5 | 5.33 | 12.9 | 27.5 | 18.6 | 17.8 | 25 | 6.48 | 5.73 | 5.78 | 14.8 | 11.8 | 11.4 |
| COC(=O)c1ccccc1C1CN=NC12Cc1c(C)c3c(c(C)c1C2=O)CCC3 (stereo not given) | > 100 | > 100 | > 100 | > 100 | > 100 | > 100 | > 100 | > 100 | > 100 | > 100 | > 100 | > 100 | > 100 | > 100 | > 100 | > 100 | > 100 | > 100 |
| CNC(=O)OC(C)CN1c2ccccc2Sc2ccccc21 (stereo not given) | > 100 | > 100 | > 100 | > 100 | > 100 | > 100 | > 100 | > 100 | > 100 | > 100 | > 100 | > 100 | > 100 | > 100 | > 100 | > 100 | > 100 | > 100 |
| CCCCC/C=C1\CCC(CN2CCOCC2)C1=O (stereo not given) | 33.9 | 30.1 | 29.7 | 24.2 | 54.5 | 33 | 10.5 | 7.73 | 7.55 | 12.2 | 48 | 34 | 32.3 | 21.2 | 37.6 | 32.4 | 11.5 | 23.8 |
| COc1ccc(C(=O)N=C2N(c3ccccc3)C(=Nc3ccccc3)C(=Nc3ccccc3)N2c2ccccc2)cc1 | 61.1 | > 100 | > 100 | > 100 | 57.5 | > 100 | > 100 | > 100 | > 100 | > 100 | 87.3 | > 100 | > 100 | > 66.6 | > 100 | > 100 | > 100 | > 87.9 |
| Cc1ccc(-c2n[nH]c(=O)n2N)cc1 | > 100 | > 100 | > 100 | > 100 | > 100 | > 100 | > 100 | > 100 | > 100 | > 100 | > 100 | > 100 | > 100 | > 100 | > 100 | > 100 | > 100 | > 100 |
| S=c1scc(-c2ccc(Cl)cc2)n1OC1CCCC1 | 79.8 | 90.4 | > 100 | 71.3 | > 100 | > 100 | > 100 | 81.6 | 67.7 | 74.9 | > 100 | > 100 | > 100 | > 100 | > 100 | > 100 | > 100 | 39.7 |
| CCCCNC(=O)C1=C(C)NC(C)=C(C(=O)NCCCC)C1 | > 100 | > 100 | > 100 | > 100 | > 100 | > 100 | > 100 | > 100 | > 100 | > 100 | > 100 | > 100 | > 100 | > 100 | > 100 | > 100 | > 100 | > 100 |
| COC(=O)C1=C(C(=O)OC)C2(/N=C(\Nc3ccccc3)c3ccccc3)N(c3ccc(OC)cc3)CC(c3ccccc3)N2O1 (stereo not given) | > 100 | > 100 | > 100 | > 100 | > 100 | > 100 | > 100 | > 100 | > 100 | > 100 | > 100 | > 100 | > 100 | > 100 | > 100 | > 100 | > 100 | > 100 |
| C[C@@H]1O[C@@H]2OCC[C@@H]2C2=C1C(=O)c1ccccc1C2=O | 32.4 | 28.6 | 39.9 | 19.1 | 31.5 | 10.8 | 5.65 | 2.81 | > 100 | 10.2 | 16.4 | 16.9 | 33 | 51.5 | 29.8 | 36.5 | 15.2 | 29.5 |
| O=C(/C=C/c1ccc(O)c(O)c1)Oc1ccccc1 | > 100 | 41.7 | > 72.9 | 20.1 | 49.2 | 30.6 | 21 | 64.9 | > 48.4 | 47.6 | > 100 | 32 | 61.4 | > 100 | 48.7 | > 80.9 | > 100 | 48.3 |
| CC(C)C(OC(=O)c1cc(NC(=S)c2ccccc2)ccc1Cl)C(C)C | 58.4 | 65.7 | > 86.4 | 55.8 | > 100 | > 100 | 70.4 | > 100 | > 64.2 | 52.5 | > 100 | 82 | > 84.7 | > 90 | 39.6 | > 100 | > 89.6 | > 61.5 |
| CN(C)CCCNC(=O)c1cc(NC(=O)CCCn2c3ccccc3c3ccccc32)cn1C | 71.3 | > 100 | 92 | > 100 | > 100 | 33.9 | > 100 | > 100 | > 100 | > 100 | > 100 | > 100 | > 100 | > 100 | > 100 | > 100 | > 100 | > 100 |
| Cc1ccc(-c2n[nH]c(CC#N)n2)cc1 | > 100 | > 100 | > 100 | > 100 | > 100 | > 100 | > 100 | > 100 | > 100 | > 100 | > 100 | > 100 | > 100 | > 100 | > 100 | > 100 | > 100 | > 100 |
| COc1ccc(C(F)(F)F)cc1NC(=O)O/N=C(/Cl)C(C)C | 66.2 | 26.7 | 33.6 | > 21.8 | 46 | 36.2 | 13.2 | > 55.9 | 6.2 | 34.8 | 35.8 | 53.7 | > 66.3 | 48.5 | 32.2 | 42.6 | > 21.4 | > 58.2 |
| CCOC(=O)C1C(=O)CC(C)(O)C(C(=O)OCC)C1c1ccc(O)c(OC)c1 (stereo not given) | > 100 | > 100 | > 100 | > 100 | > 100 | > 100 | > 100 | > 100 | > 100 | > 100 | > 100 | > 100 | > 100 | > 100 | > 100 | > 100 | > 100 | > 100 |
| COc1cc(C(CN)N(C)C)cc(OC)c1OC (stereo not given) | > 100 | > 100 | > 100 | > 100 | > 100 | > 100 | > 100 | > 100 | > 100 | > 100 | > 100 | > 100 | > 100 | > 100 | > 100 | > 100 | > 100 | > 100 |
| c1ccc(N=C2SC(c3ccccc3)CN2C23CC4CC(CC(C4)C2)C3)cc1 (stereo not given) | > 100 | > 100 | > 100 | > 100 | > 100 | > 100 | > 100 | > 100 | > 100 | > 100 | > 100 | > 100 | > 100 | > 100 | > 100 | > 100 | > 100 | > 100 |
| Cn1c2nc(=Nc3ccc(Cl)cc3)n3ccc4ccccc4c3c2c(=O)n1-c1ccccc1 | > 100 | > 100 | > 100 | > 100 | > 100 | > 100 | > 100 | > 100 | > 100 | > 100 | > 100 | > 100 | > 100 | > 100 | > 100 | > 100 | > 100 | > 100 |
| COC(=O)C1=C(O)C(C(=O)OC)[C@@]2(O)[C@@H](C(=O)OC)C(c3ccc(OC(=O)/C(=C/c4ccccc4)c4ccccc4)cc3)C[C@@H]1[C@@H]2C(=O)OC (stereo not given in full) | 96.4 | > 100 | > 100 | > 100 | > 100 | > 100 | 22.5 | > 100 | > 100 | > 100 | > 100 | > 100 | > 100 | > 100 | > 100 | > 100 | > 100 | > 100 |
| COC(=O)c1ccc(NCc2cc(O)c3ccccc3c2O)cc1 | 36.7 | 25.7 | 48.7 | > 28.5 | 32.5 | 25.5 | 11.5 | 21.3 | 9.73 | 28.2 | 25.9 | > 73.1 | 19.9 | 18.3 | 40 | > 81.8 | 32.3 | 40.1 |
| N#C/C(=C\N1CCNC1=S)C(=O)c1ccc2ccccc2c1 | > 100 | > 100 | > 100 | > 100 | > 100 | > 100 | > 100 | > 100 | > 100 | > 100 | > 100 | > 100 | > 100 | > 100 | > 100 | > 100 | > 100 | > 100 |
